Data published in patent publication US8513161B2, “Enhancement of plant growth” (Valent Biosciences Corporation, priority 2007, dated 2013).

Key:
cotton [1] = experiment: Pouch assay of cotton after PESA salt and clothianidin seed treatments; assay type: in vivo; conditions: seed treatment; for shoot length of cotton: control 3.7; for root length of cotton: control 9.6
Description: (§1) Seed was sieved with a screen of hole size appropriate to remove broken seeds and small trash. Cracked or otherwise damaged seeds were removed. The seed was well mixed, and 50 g samples were weighed into small plastic trays. Seed treatment slurries were made by adding measured amounts of the active ingredients to sufficient water to bring them up to a standard volume, typically 2 ml. A fungicide (Maxim XL; Syngenta Agricultural Products, Greensboro, N.C.), a polymeric binder (CF-Clear; Becker-Underwood, Ames, Iowa), and a colorant (Color Coat Red; Becker-Underwood, Ames, Iowa) were also included in the slurry at label rates. A small aliquot of this slurry was applied to the seed using the Hege 11 coater (Wintersteiger, Salt Lake City, Utah) with a six-inch bowl. The slurry was deposited drop-wise on the spinning disk atomizer using a syringe.
(§2) Seeds were placed in germination pouches consisting of germination paper hydrated with sterile water that was an insert in a gas-permeable 16×14 cm plastic pouch (CYG Pouch; Mega International, St. Paul, Minn.). In these examples, in pouch solution evaluation, clothianidin and PESA sodium salt were added to the sterile water in the pouch. Alternatively, imidacloprid or dinotefuran and PESA sodium salt were added to the sterile water in the pouch. The pouches were arranged in a completely randomized block design in growth racks and placed in 19-liter polycarbonate food storage containers (Rubbermaid Commercial Products, Winchester, Va.). The sealed containers were held in an upright growth cabinet maintained at 25 C with a 12 hour light: 12 hour dark photoperiod. After 6 days, the containers were removed from the growth cabinet, and the lengths of the roots and shoot were measured.

cotton [2] = experiment: Continuous exposure pouch study, PESA salt and clothianidin on cotton; assay type: in vivo
Description: as §2

soybean = experiment: Field study, seed treatment of soybean; assay type: in vivo
Description: (§3) For the field studies, the seed was treated with a seed treatment formulation containing clothianidin. The rate of clothianidin was dependent on the crop species. The seed treatment formulations were amended with the appropriate concentrations of either PESA or the sodium salt of PESA. Crops were planted and grown under standard agricultural practices, and evaluated at the times indicated. The sodium salt of PESA was prepared as described above, and was used in seed treatment either alone or in the presence of clothianidin. Soybean seed was treated with 0 or 50 grams of clothianidin/100 kg (220 pound) of seed and with 0, 22, 55, or 137.5 grams PESA salt/100 kg seed.

canola = experiment: Field study, seed treatment of canola; assay type: in vivo, Brassica napus
Description: as §3, with “Canola (Brassica napus)” for “Soybean”, “400” for “50”

maize = experiment: Field study, seed treatment of maize; assay type: in vivo, Zea mays
Description: For the field studies, the seed was treated with a seed treatment formulation containing clothianidin. The rate of clothianidin was dependent on the crop species. The seed treatment formulations were amended with the appropriate concentrations of either PESA or the sodium salt of PESA. Crops were planted and grown under standard agricultural practices, and evaluated at the times indicated. The PESA or the sodium salt of PESA was prepared as described above, and was used in seed treatment either alone or in the presence of clothianidin. Maize (Zea mays) seed was treated with 0 or 0.25 milligrams of clothianidin/seed and with 0, 22, 55, or 137.5 grams PESA salt/100 kg seed.

sorghum = experiment: Field study, seed treatment of sorghum; assay type: in vivo
Description: as §3, with “Sorghum” for “Soybean”, “200” for “50”

cotton [3] = experiment: Continuous exposure pouch study, PESA salt and imidacloprid on cotton; assay type: in vivo
Description: as §2, with “measured. […] Root lengths of the control and combination treatment of imidacloprid with 100 mg/liter PESA salt were similar.” for “measured.”

rice = experiment: Pouch study of rice, imidacloprid seed treatment with PESA salt solution in pouch; assay type: in vivo; conditions: for shoot length of rice: control 3.3; for root length of rice: control 10.7
Description: as §1, §2
Root lengths of the control and combination treatment of 200 grams imidacloprid/100 pounds of seed with 50 mg/liter PESA salt were similar.

[4] = clothianidin 182 g/100 pounds of seed alone
[5] = clothianidin 364 g/100 pounds of seed alone
[6] = imidacloprid 200 g/100 pounds of seed alone
[7] = imidacloprid 400 g/100 pounds of seed alone
[8] = imidacloprid 800 g/100 pounds of seed alone

CN/C(=N\[N+](=O)[O-])NCc1cnc(Cl)s1 [Clothianidin, (E)-1-(2-chloro-1,3-thiazol-5-ylmethyl)-3-methyl-2-nitroguanidine, reference compound]
effect on cotton shoot length (cotton [1]; Table 2): increased cotton shoot length
shoot length of cotton (cotton [1]; [4]): 4.1 cm
root length of cotton (cotton [1]; [4]): 7.8 cm
shoot length of cotton (cotton [1]; [5]): 4.2 cm
root length of cotton (cotton [1]; [5]): 7.9 cm
effect on cotton root length (cotton [1]; clothianidin alone 182 or 364 g/100 pounds of seed): reduced cotton root length
effect on cotton root length (cotton [2]; continuous exposure pouch, substance alone): decreased the length of the root
effect on cotton shoot length (cotton [2]; continuous exposure pouch, clothianidin alone): not affected
shoot length of cotton (cotton [2]; in pouch, clothianidin 1000 mg/liter alone, control 6.1): 6.1 cm
root length of cotton (cotton [2]; in pouch, clothianidin 1000 mg/liter alone, control 11.4): 8.9 cm
average plant height of soybean (soybean; 66 days after planting, clothianidin 50 g/100 kg seed alone, control 23.8): 21.6 inches
effect on soybean plant height (soybean; clothianidin alone, 50 g/100 kg seed): reduced plant height as compared to the control
vigor rating (1 = low and 5 = high) of canola plants (canola; 19 days after planting, clothianidin 400 g/100 kg seed alone, control 3.8): 2.5
effect on canola plant vigor (canola; clothianidin alone, 400 g/100 kg seed): reduced plant vigor as compared to the control
vigor rating of maize plants, Vigor (1-5) (maize; 27 days after planting, clothianidin 0.25 mg/seed alone, control 3.6): 3.1
effect on maize plant vigor (maize; clothianidin alone, 0.25 mg/seed): reduced plant vigor as compared to the control
root dry weight of a sample of 10 sorghum plants (sorghum; 73 days after planting, clothianidin 200 g/100 kg seed alone, control 148.5): 108.7 grams
effect on sorghum root dry weight (sorghum; clothianidin alone, 200 g/100 kg seed): reduced root dry weight as compared to the control

O=[N+]([O-])N=C1NCCN1Cc1ccc(Cl)nc1 [Imidacloprid, (EZ)-1-(6-chloro-3-pyridylmethyl)-N-nitroimidazolidin-2-ylideneamine]
effect on cotton root length (cotton [3]; continuous exposure pouch, imidacloprid 1000 mg/liter alone): decreased root length
effect on cotton shoot length (cotton [3]; imidacloprid alone): not affected
shoot length of cotton (cotton [3]; in pouch, imidacloprid 1000 mg/liter alone, control 6.2): 6.0 cm
root length of cotton (cotton [3]; in pouch, imidacloprid 1000 mg/liter alone, control 13.3): 7.7 cm
shoot length of rice (rice; [6]): 3.6 cm
root length of rice (rice; [6]): 9.6 cm
shoot length of rice (rice; [7]): 3.3 cm
root length of rice (rice; [7]): 8.9 cm
shoot length of rice (rice; [8]): 3.6 cm
root length of rice (rice; [8]): 8.3 cm
effect on rice root length (rice; seed treatment with imidacloprid alone): decreased the root length in a dose-dependent manner

O=C(O)CCC(=O)NCCc1ccccc1 [PESA, N-(2-phenylethyl)succinamic acid]
safening of maize (maize; conclusion from Table 12): safened maize against clothianidin-induced vigor reduction
